Assay results taken from patent publication US20220146526A1, “METHOD FOR EVALUATING SAMPLE, ANALYSIS METHOD, METHOD FOR DETECTING DEGRADED SAMPLE, MARKER FOR DETECTING DEGRADED BLOOD PLASMA SAMPLE, AND MARKER FOR DETECTING DEGRADED SERUM SAMPLE” (SHIMADZU CORPORATION, priority 2019, published 2022).

How the values were obtained:
Format in all cases: physicochemical, human
[1] = GC/MS of blood plasma sample: time from blood collection to centrifugation (Table A); details: for Increase or decrease: detection intensity; for Increase or decrease / Rate of increase or decrease: blood collection to centrifugation; for Rate of increase or decrease (second value, decrease) / Rate of increase or decrease (first value, increase): different from individual to individual, relative to 1 at 15 minutes, collection to centrifugation; for Rate of increase or decrease (second value, decrease): individuals with decrease; for Rate of increase or decrease (first value, increase): individuals with increase; for Rate of increase or decrease: detection intensity relative to 1 at 15 minutes
Method in brief: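 Read-out is MRM detection intensity by electron-ionization GC/MS on a BPX5 column after methoxymation and trimethylsilylation, expressed relative to a 15-minute collection-to-centrifugation interval. Plasma was prepared from EDTA blood held at 4° C and spun at 4° C, 3000 rpm for 15 minutes, then frozen.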

[2] = GC/MS of blood plasma sample: time from blood collection to cooling of blood (Table B); parameters: key to Rate of increase or decrease / Rate of increase or decrease (first value, increase): detection intensity relative to 1 at cooling time ≤1 min; details: for Rate of increase or decrease: detection intensity relative to 1 at 1 minute or less, blood collection to cooling 5 minutes; for Increase or decrease: detection intensity, blood collection to cooling 5 minutes or more vs 1 minute or less; for Rate of increase or decrease (second value, decrease) / Rate of increase or decrease (first value, increase): different from individual to individual, relative to 1 at 1 minute or less, collection to cooling 5 minutes; for Rate of increase or decrease (second value, decrease): individuals with decrease; for Rate of increase or decrease (first value, increase): individuals with increase
Experimental: At room temperature, 5 mL of blood from a healthy subject was taken into a blood-collecting vessel containing EDTA, and the blood-collecting vessel was inverted for mixing, then cooled, and allowed to stand at 4° C. Here, in order to investigate how the detection intensity of molecules contained in the sample was affected in a case where the time to cooling was set to 5 minutes or more as compared to that in a case where the time to cooling was set to 1 minute or less, preparations were performed under both the former condition and the latter condition. After standing, the blood sample was subjected to centrifugation under a condition of 4° C., 3000 rpm, and 15 minutes. […] After centrifugation, the blood-collecting vessel was left to stand at room temperature for 30 minutes, and the blood plasma was isolated during this 30 minutes. The obtained blood plasma sample was frozen and stored. Here, in order to investigate how the detection intensity of molecules contained in the sample was affected in cases where freezing and thawing was performed 4 times, 6 times, and 10 times after freezing as compared to that in a case where freezing and thawing was performed 2 times after freezing, freezing and thawing was performed under the respective conditions of 2, 4, 6, and 10 times.
Frozen blood plasma samples and serum samples were subjected to GC/MS or LC/MS. In GC/MS, the blood plasma samples and serum samples were subjected to methoxymation and trimethylsilylation and then introduced to GC-MS.
GC/MS was conducted using GCMS·TQ8040 (Shimadzu Corporation) that was a GC·MS equipped with AOC·20i (Shimadzu Corporation) as an autosampler.
Column: BPX5 (inner diameter of 0.25 mm, length of 30 m, and film thickness of 0.25 μm) (SGE)
Column temperature: maintained at 60° C. for 2 minutes, then raised at 15° C./min, and maintained at 330° C. for 3 minutes.
Inlet temperature: 250° C.
Carrier gas control mode: constant linear velocity of 39.0 cm/sec
Sample introduction method: split (split ratio of 30:1) Injection volume: 1 μL
Ionization method: electron ionization
Ionization current: 60 μA
Interface temperature: 280° C.
Ion source temperature: 200° C.
Mode: multiple reaction monitoring (MRM)
Table B presents compounds of which the detection intensity increased or decreased by 30% or more in a case where the time from blood collection to cooling of blood, when a blood plasma sample was analyzed by GC/MS, was set to 5 minutes or more as compared to that in a case where the time was set to 1 minute or less. The rate of increase or decrease in Table B is the value of detection intensity relative to 1 that is the detection intensity in a case where the time from blood collection to cooling is set to 1 minute or less.

[3] = GC/MS of blood plasma sample: number of times of freezing and thawing (Table C); details: for Rate of increase or decrease: detection intensity relative to 1 at 2 times; for Increase or decrease: detection intensity; for Rate of increase or decrease (second value, decrease) / Rate of increase or decrease (first value, increase): different from individual to individual, relative to 1 at 2 times; for Rate of increase or decrease (second value, decrease): individuals with decrease; for Rate of increase or decrease (first value, increase): individuals with increase
Method in brief: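 Values express detection intensity as a ratio to the 2-cycle freeze-thaw sample (=1), compared with 4, 6 and 10 cycles. Healthy-donor EDTA plasma, cooled at ≤1 min or ≥5 min, spun at 4 °C, 3000 rpm, 15 min. Derivatised by methoxymation/trimethylsilylation; GC-MS/MS in MRM mode with electron ionization.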

[4] = GC/MS of serum sample: time from blood collection to centrifugation (Table G); details: for Rate of increase or decrease: detection intensity relative to 1 at 15 minutes; for Rate of increase or decrease / Increase or decrease: blood collection to centrifugation; for Increase or decrease: detection intensity; for Rate of increase or decrease (second value, decrease) / Rate of increase or decrease (first value, increase): different from individual to individual, relative to 1 at 15 minutes, collection to centrifugation; for Rate of increase or decrease (second value, decrease): individuals with decrease; for Rate of increase or decrease (first value, increase): individuals with increase
Method in brief: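 Values express detection intensity as a ratio to the sample centrifuged 15 minutes after blood collection (taken as 1). Serum was derivatized by methoxymation and trimethylsilylation, then analysed by electron-ionization GC/MS using multiple reaction monitoring on a BPX5 column ramped from 60 to 330° C.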

[5] = GC/MS of serum sample: time from centrifugation to isolation (Table H); parameters: key to Rate of increase or decrease / Rate of increase or decrease (first value, increase): detection intensity relative to 1 at 30 min centrifugation-to-isolation; details: for Rate of increase or decrease: detection intensity relative to 1 at 30 minutes; for Increase or decrease: detection intensity
Method in brief: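 Values are GC/MS (EI, MRM) detection intensities of methoxymated/trimethylsilylated serum, normalised to 1 for the 30-min sample. Serum was isolated 30 min, 1 h or 6 h after room-temperature centrifugation (3500 rpm, 5 min) of blood.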

[6] = GC/MS of serum sample: number of times of freezing and thawing (Table I); parameters: key to Rate of increase or decrease / Rate of increase or decrease (first value, increase): detection intensity relative to 2 freeze-thaw cycles = 1; details: for Rate of increase or decrease: detection intensity relative to 1 at 2 times; for Number of times when compound is affected: detection intensity changed by 30% or more vs 2 times of freezing and thawing
Method in brief: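 Detection intensities are ratios to the value after two freeze–thaw cycles, which is set as 1, compared against 4, 6 and 10 cycles. Analysis used methoxymation and trimethylsilylation derivatization, then GC/MS with EI ionization and multiple reaction monitoring on a BPX5 column. Serum came from blood held at room temperature and spun at 3500 rpm for 5 min.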

[7] = freezing and thawing 10 times vs 2 times
[8] = freezing and thawing 6 times vs 2 times
[9] = 10 times of freezing and thawing
[10] = serum sample, GC/MS, detection intensity vs 2 times of freezing and thawing
[11] = freezing and thawing 4 times vs 2 times
[12] = serum, GC/MS, freezing and thawing 4 times
[13] = detection intensity, serum, GC/MS, freezing and thawing 4 times vs 2 times

Row | Increase or decrease ([1]; after 4 hours vs 15 minutes) | Rate of increase or decrease (second value, decrease) ([1]; after 4 hours) | Rate of increase or decrease (first value, increase) ([1]; after 4 hours) | Rate of increase or decrease [2] | Increase or decrease [2] | Rate of increase or decrease ([4]; after 4 hours) | Increase or decrease ([4]; after 4 hours vs 15 minutes) | Rate of increase or decrease ([5]; after 1 hour) | Increase or decrease ([5]; after 1 hour vs 30 minutes) | Increase or decrease [3, 8] | Increase or decrease ([4]; after 8 hours vs 15 minutes) | Rate of increase or decrease ([1]; after 4 hours) | Increase or decrease [3, 11] | Rate of increase or decrease ([3]; freezing and thawing 4 times) | Structure (SMILES) | further results
1 | Different from individual | 0.22 | 3.36 | 0.67 | Decrease | 3.20 | Increase | 1.60 | Increase |  |  |  |  |  | OC[C@@H](O)[C@@H](O[C@@H]1O[C@H](CO)[C@H](O)[C@H](O)[C@H]1O)[C@H](O)[C@@H](O)CO [Lactitol] | Rate of increase or decrease ([3]; freezing and thawing 10 times): 1.73; Increase or decrease [3, 7]: Increase
2 | Different from individual | 0.32 | 4.90 |  | Increase | 1.39 | Increase |  |  | Decrease |  |  |  |  | O=P(O)(O)OCC(O)CO (stereo not shown) [Glycerol-3-phosphate] | Rate of increase or decrease ([3]; freezing and thawing 6 times): 0.41
3 |  |  |  |  | Different from individual |  |  | 1.45 | Increase | Increase | Increase |  |  |  | OC[C@H]1O[C@H](O[C@H]2O[C@H](CO)[C@@H](O)[C@H](O)[C@H]2O)[C@H](O)[C@@H](O)[C@@H]1O [Trehalose] | Rate of increase or decrease ([1]; after 8 hours): 0.56; Increase or decrease ([1]; after 8 hours vs 15 minutes): Decrease; Rate of increase or decrease (second value, decrease) [2]: 0.58; Rate of increase or decrease (first value, increase) [2]: 5.01; Rate of increase or decrease ([3]; freezing and thawing 6 times): 1.98; Rate of increase or decrease ([4]; after 8 hours): 1.50; Rate of increase or decrease [6, 9]: 0.69; Number of times when compound is affected ([6]; serum sample, GC/MS): 10 times; Increase or decrease [6, 10]: Decrease
4 | Different from individual | 0.66 | 1.69 |  | Different from individual |  |  | 1.69 | Increase | Different from individual |  |  |  |  | CC(=O)N[C@@H](CO)C(=O)O [N-acetylserine] | Rate of increase or decrease (second value, decrease) [2]: 0.69; Rate of increase or decrease (first value, increase) [2]: 1.64; Rate of increase or decrease (second value, decrease) ([3]; freezing and thawing 6 times): 0.69; Rate of increase or decrease (first value, increase) ([3]; freezing and thawing 6 times): 1.39; Rate of increase or decrease ([4]; after 12 hours): 1.44; Increase or decrease ([4]; after 12 hours vs 15 minutes): Increase
5 | Decrease |  |  | 0.59 | Decrease | 2.55 | Increase | 1.44 | Increase |  |  | 0.57 | Different from individual |  | Oc1ccccn1 [2-Hydroxypyridine] | Rate of increase or decrease (second value, decrease) ([3]; freezing and thawing 4 times): 0.54; Rate of increase or decrease (first value, increase) ([3]; freezing and thawing 4 times): 2.48; Rate of increase or decrease [6, 12]: 0.50; Increase or decrease [6, 13]: Decrease
6 |  |  |  | 0.56 | Decrease |  | Different from individual | 2.37 | Increase |  | Different from individual |  | Increase | 1.40 | OC[C@H]1O[C@@H](O[C@H]2[C@H](O)[C@@H](O)C(O)O[C@@H]2CO)[C@H](O)[C@@H](O)[C@H]1O (stereo partly shown) [Lactose] | Rate of increase or decrease ([1]; after 12 hours): 0.70; Increase or decrease ([1]; after 12 hours vs 15 minutes): Decrease; Rate of increase or decrease (second value, decrease) ([4]; after 4 hours): 0.62; Rate of increase or decrease (second value, decrease) ([4]; after 8 hours): 0.65; Rate of increase or decrease (first value, increase) ([4]; after 4 hours): 1.31; Rate of increase or decrease (first value, increase) ([4]; after 8 hours): 3.99; Rate of increase or decrease ([5]; after 6 hours): 1.43; Increase or decrease ([5]; after 6 hours vs 30 minutes): Increase; Rate of increase or decrease [6, 12]: 1.60; Rate of increase or decrease ([6]; serum, GC/MS, freezing and thawing 6 times): 1.33; Increase or decrease [6, 13]: Increase; Increase or decrease ([6]; detection intensity, serum, GC/MS, freezing and thawing 6 times vs 2 times): Increase
7 | Increase |  |  | 0.67 | Decrease |  |  |  |  |  |  | 1.78 |  |  | NCCc1c[nH]cn1 [Histamine] | Rate of increase or decrease ([3]; freezing and thawing 10 times): 1.63; Increase or decrease [3, 7]: Increase
8 | Different from individual | 0.66 | 4.41 | 1.96 | Increase |  |  |  |  |  | Increase |  | Increase | 1.38 | O=C(CO)[C@H](O)[C@H](O)CO [Ribulose] | Rate of increase or decrease ([4]; after 8 hours): 1.72; Rate of increase or decrease [6, 9]: 0.68; Number of times when compound is affected ([6]; serum sample, GC/MS): 10 times; Increase or decrease [6, 10]: Decrease
9 | Increase |  |  | 0.70 | Decrease |  |  |  |  |  |  | 4.98 | Increase | 1.77 | CS(=O)(=O)CC[C@H](N)C(=O)O [Methionine sulfone] | 
